Measurements: patent US20240092758A1, “IMIDAZOLO INDAZOLE COMPOUNDS AS JAK INHIBITORS” (Theravance Biopharma R&D IP, LLC, priority 2021, published 2024)

Key:
[1] = system: IL-13 induced STAT6 phosphorylation in BEAS-2B human lung epithelial cells; assay: Cellular JAKI potency assay (BEAS-2B); format: cell-based; conditions: Homo sapiens, BEAS-2B, BEAS-2B cells, read-out: BEAS2B pIC50 (converted)
Procedure, shortened: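 BEAS-2B cells were preincubated with compound (0.1% DMSO) in HBSS/HEPES/BSA for 1 h at 37 °C, then stimulated with IL-13 (80 ng/mL before addition) for 30 min. After lysis, pSTAT6 (Tyr641) was quantified by AlphaLISA SureFire; IC50 from a 4-parameter fit of percent inhibition, reported as pIC50.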

JAK3 = JAK3 (Homo sapiens (Human), UniProt P52333); assay: Biochemical JAK kinase assay (LanthaScreen), JAK3; conditions: read-out: JAK3 pKi (converted)
Procedure, shortened: (§1)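 LanthaScreen format: phospho-STAT1 (pTyr701) detected with 2 nM Tb antibody after 10 mM EDTA quench. Kinase step used Km-level ATP and 200 nM STAT1 peptide, 1 h at ambient after 1 h pre-incubation. Inhibition fitted to IC50, reported as pKi.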

JAK2 = JAK2 (Homo sapiens (Human), UniProt O60674); assay: Biochemical JAK kinase assay (LanthaScreen), JAK2; conditions: for Ki: read-out: JAK2 pKi (converted)
Procedure, shortened: as §1

JAK1 = JAK1 (Homo sapiens (Human), UniProt P23458); assay: Biochemical JAK kinase assay (LanthaScreen), JAK1; conditions: for Ki: read-out: JAK1 pKi (converted)
Procedure, shortened: as §1

TYK2 = TYK2 (Homo sapiens (Human), UniProt P29597); assay: Biochemical JAK kinase assay (LanthaScreen), Tyk2; conditions: read-out: Tyk2 pKi (converted)
Procedure, shortened: as §1

[2] = Pharmacokinetics in plasma and lung in mouse after oral aspiration administration; format: in vivo; conditions: male CD1 mice; for Lung Tissue AUC(0-24) / AUC(0-t): 0.2 mg/mL, two 25 μL increments; for Lung Tissue:Plasma AUC ratio: lung AUC to plasma AUC; for AUC(0-t): mouse, inhaled or intranasal, 0.01 mg/mouse, plasma, read-out: Plasma AUC(0-24)
Description: Plasma and lung concentrations of test compounds were quantified and pharmacokinetic parameters were calculated in the following manner. Male CD1 mice from Charles River Laboratories were used in the pharmacokinetic studies. Test compounds were individually formulated in 20% propylene glycol in pH 4 citrate buffer at a concentration of 0.2 mg/mL. Test compounds were administered in two, 25 μL increments introduced into the trachea of each mouse by oral aspiration using a calibrated pipette once the animal was anesthetized using isoflurane. Blood samples were collected as terminal collections via cardiac puncture at 0.167, 1, 4, 8, and 24 hr post-dosing. Following […] with CO2, a direct cardiac puncture was performed while avoiding puncturing the lung and blood was immediately transferred into K2EDTA tubes and placed on wet ice. Blood samples were centrifuged (Eppendorf centrifuge, 5804R) for 4 minutes at approximately 12,000 rpm at 4° C. to collect plasma. Intact lungs were also excised from these mice using the same timepoints (0.167, 1, 4, 8, and 24 hr). Lungs were washed with sterile water to remove any blood residue and were patted dry, weighed, and homogenized in 0.1% formic acid in water at a dilution of 1:3 (lung:water, weight/volume). Plasma and lung concentrations of test compounds were determined by LC-MS/MS analysis against analytical standards constructed into a standard curve in the test matrix. The pharmacokinetic parameters of test compounds were determined by non-compartmental analysis. For concentrations below the limit of quantification, zero was used for mean calculations. Mean values were not reported if more than 50% of the samples were below the limit of quantification at a timepoint, or if more than 50% of a calculated pharmacokinetic parameter was not reportable. The area under the concentration-time curve extrapolated to infinity (AUC(0-inf)) was calculated as follows: AUC(0-inf)=AUC(0-t)+Clast/k, where AUC(0-t) is the area under the concentration-time curve from the time of dosing to the last measurable concentration calculated by the linear trapezoidal rule, Clast is the last measurable concentration, and k is the first order rate constant associated with the terminal elimination phase, estimated by linear regression of time versus log concentration. The lung-to-plasma AUC ratio was determined as the ratio of the lung AUC(0-inf) in μg*hr/g to the plasma AUC(0-inf) in μg*hr/mL.

Sequence of JAK1 (P23458 whole entry): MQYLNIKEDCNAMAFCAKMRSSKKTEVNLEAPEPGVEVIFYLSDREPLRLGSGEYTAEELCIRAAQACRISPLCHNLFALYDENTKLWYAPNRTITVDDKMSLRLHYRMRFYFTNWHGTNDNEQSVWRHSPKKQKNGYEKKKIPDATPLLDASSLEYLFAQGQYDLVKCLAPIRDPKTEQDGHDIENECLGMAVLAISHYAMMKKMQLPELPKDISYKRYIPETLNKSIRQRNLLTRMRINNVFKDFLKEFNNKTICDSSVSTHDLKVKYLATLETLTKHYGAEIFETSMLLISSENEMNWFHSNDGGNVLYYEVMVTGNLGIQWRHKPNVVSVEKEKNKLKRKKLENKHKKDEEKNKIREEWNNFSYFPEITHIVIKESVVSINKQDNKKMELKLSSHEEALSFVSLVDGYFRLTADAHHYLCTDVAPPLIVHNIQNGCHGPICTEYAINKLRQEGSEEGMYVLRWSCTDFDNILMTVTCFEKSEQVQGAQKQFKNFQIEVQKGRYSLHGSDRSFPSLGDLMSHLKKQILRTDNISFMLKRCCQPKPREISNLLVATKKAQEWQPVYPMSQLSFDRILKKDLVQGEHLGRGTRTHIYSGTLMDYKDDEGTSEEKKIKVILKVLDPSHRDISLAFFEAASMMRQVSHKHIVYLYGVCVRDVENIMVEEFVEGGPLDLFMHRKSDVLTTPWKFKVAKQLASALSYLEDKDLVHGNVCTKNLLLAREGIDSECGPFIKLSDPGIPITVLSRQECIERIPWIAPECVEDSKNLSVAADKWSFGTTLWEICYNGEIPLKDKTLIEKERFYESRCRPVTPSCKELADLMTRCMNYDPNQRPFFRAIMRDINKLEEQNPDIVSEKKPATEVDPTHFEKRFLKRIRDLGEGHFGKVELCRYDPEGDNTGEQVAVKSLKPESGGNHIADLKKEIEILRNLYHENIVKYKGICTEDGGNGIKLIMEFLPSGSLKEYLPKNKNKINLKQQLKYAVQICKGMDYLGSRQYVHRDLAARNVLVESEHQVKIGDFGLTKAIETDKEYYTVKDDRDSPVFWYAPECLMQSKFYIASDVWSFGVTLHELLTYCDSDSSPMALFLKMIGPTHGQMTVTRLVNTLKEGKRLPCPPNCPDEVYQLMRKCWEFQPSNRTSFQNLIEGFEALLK
Sequence of JAK3 (P52333 whole entry): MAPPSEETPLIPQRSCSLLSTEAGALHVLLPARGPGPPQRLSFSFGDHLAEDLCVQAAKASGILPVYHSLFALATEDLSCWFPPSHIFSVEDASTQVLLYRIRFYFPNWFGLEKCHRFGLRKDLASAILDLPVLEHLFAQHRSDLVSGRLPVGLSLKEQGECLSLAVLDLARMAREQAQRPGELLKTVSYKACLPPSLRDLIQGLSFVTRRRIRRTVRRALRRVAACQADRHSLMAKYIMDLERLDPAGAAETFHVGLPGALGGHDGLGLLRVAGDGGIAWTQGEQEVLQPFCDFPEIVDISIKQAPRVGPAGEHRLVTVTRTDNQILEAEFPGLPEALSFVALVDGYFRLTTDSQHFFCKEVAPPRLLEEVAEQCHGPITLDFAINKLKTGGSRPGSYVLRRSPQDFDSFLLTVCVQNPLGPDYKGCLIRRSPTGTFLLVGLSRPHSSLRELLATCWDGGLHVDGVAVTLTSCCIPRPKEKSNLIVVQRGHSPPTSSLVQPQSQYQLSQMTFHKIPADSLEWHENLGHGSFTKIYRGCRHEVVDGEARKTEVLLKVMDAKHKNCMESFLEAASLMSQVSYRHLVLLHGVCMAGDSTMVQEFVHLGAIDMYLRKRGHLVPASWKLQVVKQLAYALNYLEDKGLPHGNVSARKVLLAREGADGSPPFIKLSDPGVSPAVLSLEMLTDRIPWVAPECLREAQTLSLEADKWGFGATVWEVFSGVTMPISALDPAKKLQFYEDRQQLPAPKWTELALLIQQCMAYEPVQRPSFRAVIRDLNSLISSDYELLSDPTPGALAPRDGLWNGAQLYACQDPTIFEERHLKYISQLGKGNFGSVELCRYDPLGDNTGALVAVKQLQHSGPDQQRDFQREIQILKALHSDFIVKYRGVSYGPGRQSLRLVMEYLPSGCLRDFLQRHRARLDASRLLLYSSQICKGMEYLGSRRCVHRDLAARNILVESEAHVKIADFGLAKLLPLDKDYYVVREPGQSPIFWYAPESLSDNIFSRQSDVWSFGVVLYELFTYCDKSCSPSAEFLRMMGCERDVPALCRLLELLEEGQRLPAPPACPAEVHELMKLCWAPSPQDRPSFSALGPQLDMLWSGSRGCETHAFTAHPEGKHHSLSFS
Sequence of JAK2 (O60674 whole entry): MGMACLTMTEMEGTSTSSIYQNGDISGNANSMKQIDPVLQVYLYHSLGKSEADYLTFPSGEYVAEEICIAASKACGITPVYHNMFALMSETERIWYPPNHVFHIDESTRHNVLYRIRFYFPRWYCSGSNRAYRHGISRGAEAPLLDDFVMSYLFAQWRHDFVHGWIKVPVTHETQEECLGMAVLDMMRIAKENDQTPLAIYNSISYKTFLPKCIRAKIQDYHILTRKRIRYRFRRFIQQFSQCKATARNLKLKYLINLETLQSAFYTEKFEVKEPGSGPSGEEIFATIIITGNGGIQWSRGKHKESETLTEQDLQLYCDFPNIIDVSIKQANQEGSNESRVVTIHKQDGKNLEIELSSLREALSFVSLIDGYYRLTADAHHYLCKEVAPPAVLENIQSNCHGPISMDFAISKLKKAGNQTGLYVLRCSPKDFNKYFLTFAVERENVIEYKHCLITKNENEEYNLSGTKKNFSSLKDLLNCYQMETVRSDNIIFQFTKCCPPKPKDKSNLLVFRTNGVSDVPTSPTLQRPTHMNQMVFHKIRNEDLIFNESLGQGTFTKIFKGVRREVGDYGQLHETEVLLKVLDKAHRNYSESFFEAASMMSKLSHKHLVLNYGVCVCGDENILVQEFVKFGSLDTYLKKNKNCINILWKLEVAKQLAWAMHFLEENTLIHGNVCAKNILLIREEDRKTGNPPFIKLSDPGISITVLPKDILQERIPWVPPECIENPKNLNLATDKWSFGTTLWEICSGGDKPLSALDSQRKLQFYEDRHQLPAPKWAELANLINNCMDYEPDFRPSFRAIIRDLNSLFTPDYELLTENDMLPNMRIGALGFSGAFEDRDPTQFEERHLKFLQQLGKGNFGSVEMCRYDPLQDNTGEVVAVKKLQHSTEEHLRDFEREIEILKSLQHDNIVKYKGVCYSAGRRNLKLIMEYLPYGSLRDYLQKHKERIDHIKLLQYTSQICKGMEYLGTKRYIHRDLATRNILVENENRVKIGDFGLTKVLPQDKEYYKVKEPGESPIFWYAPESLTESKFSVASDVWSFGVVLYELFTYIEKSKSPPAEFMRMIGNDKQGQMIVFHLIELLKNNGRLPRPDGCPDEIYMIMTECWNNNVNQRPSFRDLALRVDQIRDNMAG
Sequence of TYK2 (P29597 whole entry): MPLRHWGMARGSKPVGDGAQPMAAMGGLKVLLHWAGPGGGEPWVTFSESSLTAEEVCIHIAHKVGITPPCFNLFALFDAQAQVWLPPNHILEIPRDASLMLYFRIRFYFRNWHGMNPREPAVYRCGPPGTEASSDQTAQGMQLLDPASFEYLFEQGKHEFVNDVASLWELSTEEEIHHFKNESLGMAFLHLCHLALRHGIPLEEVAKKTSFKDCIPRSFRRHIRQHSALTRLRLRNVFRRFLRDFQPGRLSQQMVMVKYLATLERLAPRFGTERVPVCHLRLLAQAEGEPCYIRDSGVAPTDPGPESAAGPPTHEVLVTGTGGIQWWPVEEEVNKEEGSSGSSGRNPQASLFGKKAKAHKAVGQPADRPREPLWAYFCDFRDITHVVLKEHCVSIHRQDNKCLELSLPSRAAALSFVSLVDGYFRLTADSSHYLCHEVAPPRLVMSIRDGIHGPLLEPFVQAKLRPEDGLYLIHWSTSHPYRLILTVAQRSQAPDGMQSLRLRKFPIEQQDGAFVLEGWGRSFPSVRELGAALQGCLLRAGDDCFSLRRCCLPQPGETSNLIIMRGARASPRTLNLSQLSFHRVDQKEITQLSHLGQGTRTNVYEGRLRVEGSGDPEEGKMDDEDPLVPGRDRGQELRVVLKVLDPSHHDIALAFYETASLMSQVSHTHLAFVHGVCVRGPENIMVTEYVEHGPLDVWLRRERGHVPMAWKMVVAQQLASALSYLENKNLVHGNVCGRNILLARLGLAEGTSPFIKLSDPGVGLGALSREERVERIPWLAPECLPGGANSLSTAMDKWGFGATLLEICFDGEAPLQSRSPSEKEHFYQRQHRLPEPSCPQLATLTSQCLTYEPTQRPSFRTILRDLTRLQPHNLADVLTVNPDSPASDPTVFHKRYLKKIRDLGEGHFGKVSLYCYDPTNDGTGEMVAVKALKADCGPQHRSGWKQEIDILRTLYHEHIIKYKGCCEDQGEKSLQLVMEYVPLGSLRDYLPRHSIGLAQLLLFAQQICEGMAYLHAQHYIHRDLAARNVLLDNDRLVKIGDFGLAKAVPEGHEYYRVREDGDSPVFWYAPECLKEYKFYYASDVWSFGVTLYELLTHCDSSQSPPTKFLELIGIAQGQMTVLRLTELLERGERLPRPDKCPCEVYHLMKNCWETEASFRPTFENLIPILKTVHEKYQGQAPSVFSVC

Structure (SMILES)	IC50 [1] [nM]	Ki (JAK3) [nM]	Ki (JAK2) [nM]	JAK1 pKi (JAK1)	Ki (TYK2) [nM]	Lung Tissue AUC(0-24) [2]	Lung Tissue:Plasma AUC ratio [2]	AUC(0-t) [2] [ng·h/mL]	Ki (JAK1) [nM]	JAK2 pKi (JAK2)
CCc1cc(O)ccc1-c1ccc2c(-c3nc(C4=C[C@H](COC)NC4)c[nH]3)n[nH]c2c1F [Compound 9, (R)-3-ethyl-4-(7-fluoro-3-(4-(5-(methoxymethyl)-2,5-dihydro-1H-pyrrol-3-yl)-1H-imidazol-2-yl)-1H-indazol-6-yl)phenol]	3.16 to 10	0.1 to 1	0.1 to 1	A (A represents a pKi value ≥10 (Ki≤0.1 nM))	10 to 100	C (C denotes a value between 9 and 50)	C (C denotes a ratio between 100 and 200)	< 500		
CCc1cc(O)ccc1-c1ccc2c(-c3nc(C4=CCN(C5CCC5)CC4)c[nH]3)n[nH]c2c1F [Example 26]	10 to 31.6	0.1 to 1	0.1 to 1		1 to 10	C (C denotes a value between 9 and 50)	E (E denotes a ratio between 30 and 50)	< 500	0.1 to 1	
CCc1cc(O)ccc1-c1ccc2c(-c3nc(C4=CCN(C[C@@H]5COCCN5)CC4)c[nH]3)n[nH]c2c1 [Compound 17, (R)-3-ethyl-4-(3-(4-(1-(morpholin-3-ylmethyl)-1,2,3,6-tetrahydropyridin-4-yl)-1H-imidazol-2-yl)-1H-indazol-6-yl)phenol]	3.16 to 10	0.1 to 1	0.1 to 1		1 to 10	B (B denotes a value between 50 and 100)	C (C denotes a ratio between 100 and 200)	500 to 1000	0.1 to 1	
CCc1cc(O)ccc1-c1ccc2c(-c3nc(C4=CCN(C)CC4)c[nH]3)n[nH]c2c1F [Example 21]	3.16 to 10	0.1 to 1		A (A represents a pKi value ≥10 (Ki≤0.1 nM))	0.1 to 1	C (C denotes a value between 9 and 50)	D (D denotes a ratio between 50 and 100)	< 500		A (A represents a pKi value ≥10 (Ki≤0.1 nM))
CCc1cc(O)ccc1-c1ccc2c(-c3nc(C4=CC[C@@H](C)NC4)c[nH]3)n[nH]c2c1F [Example 235]	10 to 31.6	0.1 to 1			1 to 10	C (C denotes a value between 9 and 50)	C (C denotes a ratio between 100 and 200)	< 500	0.1 to 1	A (A represents a pKi value ≥10 (Ki≤0.1 nM))
CCc1cc(O)ccc1-c1ccc2c(-c3nc(C4=CCN(C5CCN(C)CC5)CC4)c[nH]3)n[nH]c2c1F [Example 185]	10 to 31.6	0.1 to 1	0.1 to 1		1 to 10	A (For the Lung Tissue AUC(0-24), A denotes a value between 100 and 200)	B (B denotes a ratio between 200 and 300)	500 to 1000	0.1 to 1	
CCc1cc(O)ccc1-c1ccc2c(-c3nc(C4=CCCN(CCCO)C4)c[nH]3)n[nH]c2c1F [Example 45]	3.16 to 10	0.1 to 1			1 to 10	C (C denotes a value between 9 and 50)	C (C denotes a ratio between 100 and 200)	< 500	0.1 to 1	A (A represents a pKi value ≥10 (Ki≤0.1 nM))
CCc1cc(O)ccc1-c1ccc2c(-c3nc(C4=CCN(C5CN(C)C5)CC4)c[nH]3)n[nH]c2c1 [Compound 15, 3-ethyl-4-(3-(4-(1-(1-methylazetidin-3-yl)-1,2,3,6-tetrahydropyridin-4-yl)-1H-imidazol-2-yl)-1H-indazol-6-yl)phenol]	10 to 31.6	0.1 to 1			1 to 10	B (B denotes a value between 50 and 100)	C (C denotes a ratio between 100 and 200)	< 500	0.1 to 1	A (A represents a pKi value ≥10 (Ki≤0.1 nM))
CCc1cc(O)ccc1-c1ccc2c(-c3nc(C4=CCN(C(C)C)CC4)c[nH]3)n[nH]c2c1F [Example 22]	3.16 to 10	0.1 to 1			1 to 10	C (C denotes a value between 9 and 50)	D (D denotes a ratio between 50 and 100)	< 500	0.1 to 1	A (A represents a pKi value ≥10 (Ki≤0.1 nM))
CCc1cc(O)ccc1-c1ccc2c(-c3nc(C4=CCCNC4)c[nH]3)n[nH]c2c1 [Compound 4, 3-ethyl-4-(3-(4-(1,2,5,6-tetrahydropyridin-3-yl)-1H-imidazol-2-yl)-1H-indazol-6-yl)phenol]	3.16 to 10	0.1 to 1	0.1 to 1		1 to 10	B (B denotes a value between 50 and 100)	C (C denotes a ratio between 100 and 200)	500 to 1000	0.1 to 1	
CCc1cc(O)ccc1-c1ccc2c(-c3nc(C4=CCCN(CCO)C4)c[nH]3)n[nH]c2c1F [Example 44]	3.16 to 10	0.1 to 1	0.1 to 1		1 to 10	B (B denotes a value between 50 and 100)	D (D denotes a ratio between 50 and 100)	500 to 1000	0.1 to 1	
